Results published in BindingDB's records for doi:10.1016/j.bmcl.2009.01.012 (Pfizer, 2009).

Assay: Antagonist activity at human recombinant CCR5 expressed in human HeLa-P4 cells assessed as inhibition of human HeLa-P4 cells binding to HIV1 gp160 expressing CHO cells by cell-cell fusion assay

First: CC(=O)NC(c1ccccc1)C1CN(C2CCN(C(=O)c3c(C)cccc3C)CC2)C1 (stereo not drawn) [N-((1-(1-(2,6-dimethylbenzoyl)piperidin-4-yl)azetidin-3-yl)(phenyl)methyl)acetamide]
Second: Cc1cccc(C)c1C(=O)N1CCC(N2CC(N(Cc3ccccc3)C(=O)C3CC3)C2)CC1 [N-benzyl-N-(1-(1-(2,6-dimethylbenzoyl)piperidin-4-yl)azetidin-3-yl)cyclopropanecarboxamide]
The IC50 of the first is 2.3-fold lower: 2490 nM for the first, 5800 nM for the second. The first is the more potent here.

First: Cc1cccc(C)c1C(=O)N1CCC(N2CCC(CNC(=O)C3CC3)(Cc3ccccc3)CC2)CC1 [N-((4-benzyl-1'-(2,6-dimethylbenzoyl)-1,4'-bipiperidin-4-yl)methyl)cyclopropanecarboxamide]
Second: Cc1cccc(C)c1C(=O)N1CCC(N2CCC(N(Cc3ccccc3)C(=O)C3CCC3)CC2)CC1 [N-benzyl-N-(1'-(2,6-dimethylbenzoyl)-1,4'-bipiperidin-4-yl)cyclobutanecarboxamide]
The IC50 of the first is 48-fold higher: 145 nM for the first, 3 nM for the second. The second is the more potent here.

First: Cc1cccc(C)c1C(=O)N1CCC(C)(N2CCC(N(Cc3ccccc3)C(=O)C3CC3)CC2)CC1 [N-benzyl-N-(1'-(2,6-dimethylbenzoyl)-4'-methyl-1,4'-bipiperidin-4-yl)cyclopropanecarboxamide]
Second: Cc1cccc(C)c1C(=O)N1CCC(N2CC[C@@H](N(Cc3ccccc3)C(=O)C3CC3)C2)CC1 [(R)-N-benzyl-N-(1-(1-(2,6-dimethylbenzoyl)piperidin-4-yl)pyrrolidin-3-yl)cyclopropanecarboxamide]
The IC50 of the first is 2-fold lower: 0.5 nM for the first, 1 nM for the second.

Going from Cc1ccnc(C)c1C(=O)N1CCC(N2C3CCC2CN(C(c2ccccc2)c2ccccc2)C3)CC1 [(4-(3-benzhydryl-3,8-diazabicyclo[3.2.1]octan-8-yl)piperidin-1-yl)(2,4-dimethylpyridin-3-yl)methanone] to Cc1ccnc(C)c1C(=O)N1CCC(N2CC3CCC(C2)N3C(c2ccccc2)c2ccccc2)CC1 [(4-(8-benzhydryl-3,8-diazabicyclo[3.2.1]octan-3-yl)piperidin-1-yl)(2,4-dimethylpyridin-3-yl)methanone], the IC50 rises from 41 nM to 313 nM (7.6-fold).

First: Cc1cccc(C)c1C(=O)N1CCC(N2CC[C@H](N(Cc3ccccc3)C(=O)C3CC3)C2)CC1 [(S)-N-benzyl-N-(1-(1-(2,6-dimethylbenzoyl)piperidin-4-yl)pyrrolidin-3-yl)cyclopropanecarboxamide]
Second: Cc1cccc(C)c1C(=O)N1[C@@H]2CC[C@H]1C[C@H](N1CC[C@@H](N(Cc3ccccc3)C(=O)C3CC3)C1)C2 [exo-N-benzyl-N-((R)-1-(8-(2,6-dimethylbenzoyl)-8-azabicyclo[3.2.1]octan-3-yl)pyrrolidin-3-yl)cyclopropanecarboxamide]
The IC50 of the first is 1200-fold higher: 1230 nM for the first, 1 nM for the second.

First: Cc1ccnc(C)c1C(=O)NCCN1CCCC(CC(c2ccccc2)c2ccccc2)C1 (racemic) [rac-N-(2-(3-(2,2-diphenylethyl)piperidin-1-yl)ethyl)-2,4-dimethylnicotinamide]
Second: Cc1ccnc(C)c1C(=O)N1CCC(N(C)C2CN(C(c3ccccc3)c3ccccc3)C2)CC1 [(4-((1-benzhydrylazetidin-3-yl)(methyl)amino)piperidin-1-yl)(2,4-dimethylpyridin-3-yl)methanone]
The IC50 of the first is 2.3-fold higher: 56 nM for the first, 24 nM for the second.

Cc1ccnc(C)c1C(=O)N1CC(N(C)C2CCN(C(c3ccccc3)c3ccccc3)CC2)C1 [(3-((1-benzhydrylpiperidin-4-yl)(methyl)amino)azetidin-1-yl)(2,4-dimethylpyridin-3-yl)methanone] gave an IC50 of 102 nM.
